Experimental data from ChEMBL document CHEMBL1201862, “PubChem BioAssay data set” (2004).
Calls of active or inactive are those of the source. Unless noted, the calls are words filed in the database; no cut-off is given here.

Legend:
Assay type in all cases: functional
[1] = target: T1, Tyrosine-protein phosphatase non-receptor type 7 (Homo sapiens, UniProt P35236)
T1 sequence (P35236 whole entry): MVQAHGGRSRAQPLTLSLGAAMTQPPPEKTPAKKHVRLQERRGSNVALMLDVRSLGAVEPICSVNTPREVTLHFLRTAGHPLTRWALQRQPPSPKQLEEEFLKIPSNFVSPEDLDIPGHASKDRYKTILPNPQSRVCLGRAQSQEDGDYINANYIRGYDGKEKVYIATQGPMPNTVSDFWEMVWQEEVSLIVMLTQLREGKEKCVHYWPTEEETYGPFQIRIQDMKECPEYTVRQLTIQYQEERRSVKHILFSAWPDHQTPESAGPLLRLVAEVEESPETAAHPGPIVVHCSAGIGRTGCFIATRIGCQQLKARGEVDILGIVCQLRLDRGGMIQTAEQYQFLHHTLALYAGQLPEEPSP

[2] = target: T2, Tyrosine-protein phosphatase non-receptor type 22 (Homo sapiens, UniProt Q9Y2R2)
T2 sequence (Q9Y2R2 whole entry): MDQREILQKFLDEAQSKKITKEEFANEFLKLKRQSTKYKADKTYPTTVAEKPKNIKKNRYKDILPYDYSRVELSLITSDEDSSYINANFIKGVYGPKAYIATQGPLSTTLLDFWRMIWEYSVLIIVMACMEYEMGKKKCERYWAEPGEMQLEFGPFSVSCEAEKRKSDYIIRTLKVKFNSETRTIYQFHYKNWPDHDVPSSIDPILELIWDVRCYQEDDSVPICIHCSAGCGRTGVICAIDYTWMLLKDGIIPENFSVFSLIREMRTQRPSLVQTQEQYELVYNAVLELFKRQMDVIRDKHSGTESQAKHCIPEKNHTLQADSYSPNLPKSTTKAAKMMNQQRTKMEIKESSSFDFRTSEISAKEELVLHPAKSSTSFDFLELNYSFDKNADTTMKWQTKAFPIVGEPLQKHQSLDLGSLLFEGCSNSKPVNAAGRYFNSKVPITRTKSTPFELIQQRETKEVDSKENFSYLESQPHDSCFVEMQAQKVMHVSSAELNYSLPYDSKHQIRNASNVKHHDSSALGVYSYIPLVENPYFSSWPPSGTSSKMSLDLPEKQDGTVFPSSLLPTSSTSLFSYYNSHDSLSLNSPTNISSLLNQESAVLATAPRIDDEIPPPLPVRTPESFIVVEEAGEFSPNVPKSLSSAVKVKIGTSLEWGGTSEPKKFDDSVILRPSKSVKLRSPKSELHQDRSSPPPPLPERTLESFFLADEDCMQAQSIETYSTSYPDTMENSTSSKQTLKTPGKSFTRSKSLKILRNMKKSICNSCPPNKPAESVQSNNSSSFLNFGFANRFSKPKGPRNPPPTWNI

[3] = target: T2, Tyrosine-protein phosphatase non-receptor type 22; remark: listed apart in the source
Mu-type opioid receptor [4] = target: T3, Mu-type opioid receptor (Homo sapiens, UniProt P35372); experiment: SAR Analysis of Antagonists of the MOR Receptor using an Image-Based Assay - Set 2. [Related pubchem assays (depositor defined):AID1777, AID1785, AID1786, AID1966, AID2133, AID2136, AID2284, AID2285, AID2420]
[5] = target: T4, Kappa-type opioid receptor (Homo sapiens, UniProt P41145); experiment: SAR analysis of Antagonists of the Kappa Opioid Receptor (KOR) using an Image-Based Assay - Set 2. [Related pubchem assays (depositor defined):AID1777, AID1785, AID1786, AID1966, AID2133, AID2136, AID2284, AID2285, AID2348]
Mu-type opioid receptor [6] = target: T3, Mu-type opioid receptor; experiment: SAR Analysis of Agonists of the MOR Receptor using an Image-Based Assay - Set 2. [Related pubchem assays (depositor defined):AID1777, AID1785, AID1786, AID1966, AID2133, AID2136, AID2284, AID2285, AID2352]
[7] = target: T4, Kappa-type opioid receptor; experiment: SAR analysis of small molecule agonists of the kappa opioid receptor via a luminescent beta-arrestin assay - Set 2. [Related pubchem assays (depositor defined):AID1777, AID1785, AID1786, AID1966, AID2133, AID2136, AID2284, AID449737]
[8] = target: T5, Delta-type opioid receptor (Homo sapiens, UniProt P41143); experiment: SAR Analysis of Agonists of the DOR Receptor using an Image-Based Assay - Set 2. [Related pubchem assays (depositor defined):AID1777, AID1785, AID1786, AID1966, AID2133, AID2136, AID2284, AID2285, AID2370]
[9] = target: T5, Delta-type opioid receptor; experiment: SAR Analysis of Antagonists of the DOR Receptor using an Image-Based Assay - Set 2. [Related pubchem assays (depositor defined):AID1777, AID1785, AID1786, AID1966, AID2133, AID2136, AID2284, AID2285, AID2357]
[10] = target: T4, Kappa-type opioid receptor; experiment: SAR analysis of Agonists of the Kappa Opioid Receptor (KOR) using an Image-Based Assay - Set 2. [Related pubchem assays (depositor defined):AID1777, AID1786, AID1966, AID2133, AID2136, AID2284, AID2285, AID2359]

T4 sequence (P41145 whole entry): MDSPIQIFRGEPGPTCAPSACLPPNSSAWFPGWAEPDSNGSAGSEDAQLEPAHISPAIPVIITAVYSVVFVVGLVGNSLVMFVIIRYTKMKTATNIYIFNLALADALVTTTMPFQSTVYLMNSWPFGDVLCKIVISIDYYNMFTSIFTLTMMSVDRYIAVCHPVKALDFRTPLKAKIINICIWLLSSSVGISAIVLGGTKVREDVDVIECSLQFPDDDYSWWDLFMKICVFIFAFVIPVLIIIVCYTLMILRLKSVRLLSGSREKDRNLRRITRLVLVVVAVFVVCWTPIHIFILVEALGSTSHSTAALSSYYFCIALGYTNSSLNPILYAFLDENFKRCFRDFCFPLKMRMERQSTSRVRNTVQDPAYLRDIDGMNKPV
T5 sequence (P41143 whole entry): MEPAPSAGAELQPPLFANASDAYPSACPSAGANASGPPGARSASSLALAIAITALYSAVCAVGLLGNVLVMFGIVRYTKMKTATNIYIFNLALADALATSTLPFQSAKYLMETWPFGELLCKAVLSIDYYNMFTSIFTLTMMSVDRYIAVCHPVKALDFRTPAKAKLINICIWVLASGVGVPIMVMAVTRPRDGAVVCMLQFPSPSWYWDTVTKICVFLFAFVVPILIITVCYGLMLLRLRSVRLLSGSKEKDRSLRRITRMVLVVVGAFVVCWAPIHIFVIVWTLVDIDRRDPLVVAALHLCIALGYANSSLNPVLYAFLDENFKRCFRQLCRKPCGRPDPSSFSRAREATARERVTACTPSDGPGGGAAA
T3 sequence (P35372 whole entry): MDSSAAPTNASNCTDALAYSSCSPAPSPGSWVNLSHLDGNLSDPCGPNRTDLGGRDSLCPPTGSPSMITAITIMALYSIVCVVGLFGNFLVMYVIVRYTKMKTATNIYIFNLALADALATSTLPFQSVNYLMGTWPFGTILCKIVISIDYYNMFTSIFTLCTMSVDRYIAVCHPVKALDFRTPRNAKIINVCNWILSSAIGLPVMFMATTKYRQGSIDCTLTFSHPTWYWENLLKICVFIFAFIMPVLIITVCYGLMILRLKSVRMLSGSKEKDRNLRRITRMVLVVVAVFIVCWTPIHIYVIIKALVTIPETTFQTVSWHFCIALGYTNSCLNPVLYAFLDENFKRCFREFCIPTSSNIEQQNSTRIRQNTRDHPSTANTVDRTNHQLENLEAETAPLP

| IC50 [1] | IC50 [2] | IC50 [3] | IC50 (Mu-type opioid receptor [4]) | IC50 [5] | EC50 (Mu-type opioid receptor [6]) | EC50 [7] | EC50 [8] | IC50 [9] | EC50 [10] | SMILES |
| --- | --- | --- | --- | --- | --- | --- | --- | --- | --- | --- |
| > 79.4 µM (inactive) | > 79.4 µM (inactive) | > 79.4 µM (inactive) | – | – | – | – | – | – | – | CSCC[C@H](NC(=O)Nc1cccc(C(F)(F)F)c1)C(=O)O |
| – | – | – | > 32 µM (inactive) | > 32 µM (inactive) | > 32 µM (inactive) | 17.9 µM (inactive) | > 32 µM (inactive) | > 32 µM (inactive) | > 32 µM (inactive) | c1ccc(CSc2nnc(-c3ccccn3)n2Cc2ccco2)cc1 |
